From PubChem BioAssay AID256 (DTP/NCI, 2004)
“And” between values parts separate entries of the source, which are not always exact repeats. Identical values can stand only once. Inconclusive results and toxic doses are left out. Rule for the calls: active = survival T/C of 150% or more; inactive = T/C below 125% in these data.

System: CD2F1 mice, L1210 leukemia ip, survival T/C
Assay: NCI In Vivo Anticancer Drug Screen. Data for tumor model L1210 Leukemia (intraperitoneal) in CD2F1 (CDF1) mice
Conditions: higher = longer survival
Procedure, shortened: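 Activity against a transplanted murine tumor was judged by comparing the compound group with a vehicle group. The outcome in the treated animals was divided by that in the controls.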

[1] = endpoint: mean survival time, dose: 100.0 mg/kg/injection, schedule: Q01DX009 (ip), vehicle: saline with Tween-80
[2] = endpoint: mean survival time, dose: 200.0 mg/kg/injection, schedule: Q01DX009 (ip), vehicle: saline with Tween-80
[3] = endpoint: mean survival time, dose: 400.0 mg/kg/injection, schedule: Q01DX009 (ip), vehicle: saline with Tween-80
[4] = endpoint: mean survival time, dose: 100.0 mg/kg/injection, schedule: Q04DX003 (ip), vehicle: saline with Tween-80
[5] = endpoint: mean survival time, dose: 200.0 mg/kg/injection, schedule: Q04DX003 (ip), vehicle: saline with Tween-80
[6] = endpoint: mean survival time, dose: 400.0 mg/kg/injection, schedule: Q04DX003 (ip), vehicle: saline with Tween-80
[7] = endpoint: mean survival time, dose: 50.0 mg/kg/injection, schedule: Q01DX009 (ip), vehicle: saline with Tween-80

Measured: T/C

CC1=C(/C=C/C(C)=C/C=C/C(C)=C/CO)C(C)(C)CCC1
inactive: endpoint: mean survival time, dose: 150.0 mg/kg/injection, schedule: Q01DX001 (ip), vehicle: alkali diluted with saline 102 % of control | endpoint: mean survival time, dose: 150.0 mg/kg/injection, schedule: Q01DX001 (ip), vehicle: distilled water + alcohol 112 % of control | endpoint: mean survival time, dose: 150.0 mg/kg/injection, schedule: Q01DX001 (ip), vehicle: other 112 % of control | endpoint: mean survival time, dose: 150.0 mg/kg/injection, schedule: Q01DX001 (ip), vehicle: saline 102 % of control | endpoint: mean survival time, dose: 150.0 mg/kg/injection, schedule: Q11HX001 (ip), vehicle: saline 102 % of control | endpoint: mean survival time, dose: 300.0 mg/kg/injection, schedule: Q01DX001 (ip), vehicle: alkali diluted with saline 99 % of control and 100 % of control | endpoint: mean survival time, dose: 300.0 mg/kg/injection, schedule: Q01DX001 (ip), vehicle: distilled water + alcohol 108 % of control | endpoint: mean survival time, dose: 300.0 mg/kg/injection, schedule: Q01DX001 (ip), vehicle: other 108 % of control | endpoint: mean survival time, dose: 300.0 mg/kg/injection, schedule: Q01DX001 (ip), vehicle: saline 103 % of control | endpoint: mean survival time, dose: 300.0 mg/kg/injection, schedule: Q11HX001 (ip), vehicle: saline 103 % of control

Cc1ccc(S(=O)(=O)c2ccc(F)cc2)cc1
inactive: [1] 100 % of control | [2] 102 % of control | [3] 96 % of control

COC(=O)C12C=CC(C1)n1c(=O)n(-c3ccccc3)c(=O)n12 (centres undefined)
inactive: [1] 98 % of control | [2] 104 % of control | [3] 96 % of control

O=C(OCC1CCN2CCCC12)c1ccccc1 (centres undefined)
inactive: endpoint: mean survival time, dose: 12.5 mg/kg/injection, schedule: Q01DX009 (ip), vehicle: saline 88 % of control | endpoint: mean survival time, dose: 25.0 mg/kg/injection, schedule: Q01DX009 (ip), vehicle: saline 91 % of control | endpoint: mean survival time, dose: 50.0 mg/kg/injection, schedule: Q01DX009 (ip), vehicle: saline 91 % of control

Cc1ccc([N+](=O)[O-])cc1NC(=O)SCCOC(=O)COc1ccc(Cl)cc1
inactive: [4] 98 % of control | [5] 96 % of control | [6] 98 % of control

NC1CCCCCCC1O (centres undefined)
inactive: endpoint: mean survival time, dose: 5.0 mg/kg/injection, schedule: Q01DX001 (ip), vehicle: saline sonified 114 % of control | endpoint: mean survival time, dose: 10.0 mg/kg/injection, schedule: Q01DX001 (ip), vehicle: saline sonified 92 % of control | endpoint: mean survival time, dose: 20.0 mg/kg/injection, schedule: Q01DX001 (ip), vehicle: saline sonified 100 % of control

COc1ccc(Cl)cc1NC(=O)N/N=C(\C)CC(C)C
inactive: endpoint: mean survival time, dose: 100.0 mg/kg/injection, schedule: Q01DX001 (ip), vehicle: saline with Tween-80 105 % of control | endpoint: mean survival time, dose: 200.0 mg/kg/injection, schedule: Q01DX001 (ip), vehicle: saline with Tween-80 95 % of control | endpoint: mean survival time, dose: 400.0 mg/kg/injection, schedule: Q01DX001 (ip), vehicle: saline with Tween-80 101 % of control

CCCCCCCCCCCCc1ccc(NC(C)=O)cc1
inactive: endpoint: mean survival time, dose: 100.0 mg/kg/injection, schedule: Q04DX003 (ip), vehicle: other 97 % of control | endpoint: mean survival time, dose: 200.0 mg/kg/injection, schedule: Q04DX003 (ip), vehicle: other 95 % of control | endpoint: mean survival time, dose: 400.0 mg/kg/injection, schedule: Q04DX003 (ip), vehicle: other 100 % of control

[Co].[NH-]CC[NH-].[NH-]CC[NH-].[NH-]CC[S-]
inactive: endpoint: mean survival time, dose: 100.0 mg/kg/injection, schedule: Q04DX002 (ip), vehicle: saline 112 % of control | endpoint: mean survival time, dose: 200.0 mg/kg/injection, schedule: Q04DX002 (ip), vehicle: saline 101 % of control | endpoint: mean survival time, dose: 400.0 mg/kg/injection, schedule: Q04DX002 (ip), vehicle: saline 104 % of control

F[Si](c1ccc(Br)cc1)(c1ccc(Br)cc1)c1ccc(Br)cc1
inactive: [7] 102 % of control | [1] 94 % of control | [4] 95 % of control | [5] 93 % of control

CNCC(O)c1ccc(O)c(O)c1.[Pt].c1ccc([PH+](c2ccccc2)c2ccccc2)cc1.c1ccc([PH+](c2ccccc2)c2ccccc2)cc1
inactive: endpoint: median survival time, dose: 10.0 mg/kg/injection, schedule: Q04DX003 (ip), vehicle: saline with Tween-80 94 % of control | endpoint: median survival time, dose: 20.0 mg/kg/injection, schedule: Q04DX003 (ip), vehicle: saline with Tween-80 108 % of control | endpoint: median survival time, dose: 40.0 mg/kg/injection, schedule: Q04DX003 (ip), vehicle: saline with Tween-80 109 % of control | endpoint: median survival time, dose: 50.0 mg/kg/injection, schedule: Q04DX003 (ip), vehicle: saline with Tween-80 102 % of control | endpoint: median survival time, dose: 80.0 mg/kg/injection, schedule: Q04DX003 (ip), vehicle: saline with Tween-80 105 % of control | endpoint: median survival time, dose: 100.0 mg/kg/injection, schedule: Q04DX003 (ip), vehicle: saline with Tween-80 101 % of control

C[C@]12CC[C@@H]3c4ccc(O)cc4CC[C@H]3[C@@H]1CC[C@@H]2O
inactive: endpoint: mean survival time, dose: 6.25 mg/kg/injection, schedule: Q01DX009 (ip), vehicle: Klucel (hydroxypropylcellulose) (HPC) 94 % of control | endpoint: mean survival time, dose: 12.5 mg/kg/injection, schedule: Q01DX009 (ip), vehicle: Klucel (hydroxypropylcellulose) (HPC) 100 % of control | endpoint: mean survival time, dose: 25.0 mg/kg/injection, schedule: Q01DX009 (ip), vehicle: Klucel (hydroxypropylcellulose) (HPC) 97 % of control | endpoint: mean survival time, dose: 50.0 mg/kg/injection, schedule: Q01DX009 (ip), vehicle: Klucel (hydroxypropylcellulose) (HPC) 96 % of control | endpoint: mean survival time, dose: 100.0 mg/kg/injection, schedule: Q01DX009 (ip), vehicle: Klucel (hydroxypropylcellulose) (HPC) 105 % of control | endpoint: mean survival time, dose: 200.0 mg/kg/injection, schedule: Q01DX009 (ip), vehicle: Klucel (hydroxypropylcellulose) (HPC) 96 % of control

COc1ccc2[nH]c(-c3ccccc3)cc2c1
inactive: [4] 93 % of control | [5] 88 % of control | [6] 98 % of control

C1CC[N-]CC1.[Cl][Au]([Cl])[Cl]
inactive: endpoint: mean survival time, dose: 25.0 mg/kg/injection, schedule: Q01DX009 (ip), vehicle: saline with Tween-80 97 % of control | [7] 100 % of control | [4] 96 % of control

COC(=O)c1nc(SC)n(C2OC(COC(=O)c3ccccc3)C(OC(=O)c3ccccc3)C2OC(=O)c2ccccc2)c1CC#N (centres undefined)
inactive: endpoint: median survival time, dose: 9.13 mg/kg/injection, schedule: Q01DX005 (ip), vehicle: saline with Tween-80 100 % of control | endpoint: median survival time, dose: 18.25 mg/kg/injection, schedule: Q01DX005 (ip), vehicle: saline with Tween-80 98 % of control | endpoint: median survival time, dose: 36.5 mg/kg/injection, schedule: Q01DX005 (ip), vehicle: saline with Tween-80 91 % of control | endpoint: median survival time, dose: 73.0 mg/kg/injection, schedule: Q01DX005 (ip), vehicle: saline with Tween-80 98 % of control | endpoint: median survival time, dose: 146.0 mg/kg/injection, schedule: Q01DX005 (ip), vehicle: saline with Tween-80 96 % of control

COc1ccc(Cl)c2c1C(=O)C(=O)N2
inactive: [4] 91 % of control | [5] 98 % of control | [6] 98 % of control

O=c1[nH]cc(N=Cc2ccccc2O)c(=O)[nH]1.[Cl][Pt]
inactive: endpoint: mean survival time, dose: 3.13 mg/kg/injection, schedule: Q04DX003 (ip), vehicle: water 96 % of control | endpoint: mean survival time, dose: 6.25 mg/kg/injection, schedule: Q04DX003 (ip), vehicle: water 96 % of control | endpoint: mean survival time, dose: 12.5 mg/kg/injection, schedule: Q04DX003 (ip), vehicle: water 97 % of control | endpoint: mean survival time, dose: 25.0 mg/kg/injection, schedule: Q04DX003 (ip), vehicle: water 108 % of control | endpoint: mean survival time, dose: 50.0 mg/kg/injection, schedule: Q04DX003 (ip), vehicle: water 102 % of control | endpoint: mean survival time, dose: 100.0 mg/kg/injection, schedule: Q04DX003 (ip), vehicle: water 100 % of control | endpoint: mean survival time, dose: 200.0 mg/kg/injection, schedule: Q04DX003 (ip), vehicle: water 108 % of control

Fc1c(F)c(F)c([Si](c2c(F)c(F)c(F)c(F)c2F)(c2c(F)c(F)c(F)c(F)c2F)c2c(F)c(F)c(F)c(F)c2F)c(F)c1F
inactive: [1] 97 % of control | [2] 100 % of control | [3] 98 % of control

C#CCOC(=O)NCCC
inactive: endpoint: mean survival time, dose: 100.0 mg/kg/injection, schedule: Q04DX003 (ip), vehicle: Klucel (hydroxypropylcellulose) (HPC) 96 % of control | endpoint: mean survival time, dose: 200.0 mg/kg/injection, schedule: Q04DX003 (ip), vehicle: Klucel (hydroxypropylcellulose) (HPC) 100 % of control

C=CC1CCCCC1C (centres undefined)
inactive: [4] 100 % of control | [5] 100 % of control | [6] 103 % of control
